Assays:
Assay type in all cases: cell-based, HIV-1
[1] = tested on: RTV-675 (patient sample 98-675); test: Phenotypic susceptibility assay, RTV-675; details: RTV-675, patient-derived pool
Method: (§1) Transfections were performed using a calcium-phosphate precipitation procedure. […] Cell lysates were assayed for luciferase activity (FIG. 3).
(§2) The drug inhibition curves are shown in (FIG. 3).
A resistance test vector was constructed as described in Example 1 from a patient sample designated 98-675. This patient had been previously treated with ddI, AZT, and 3TC (NRTIs), and saquinavir and nelfinavir (PRIs). Isolation of viral RNA and RT/PCR was used to generate a patient derived segment that comprised viral sequences coding for all of PR and aa 1-313 of RT. The PDS was inserted into an indicator gene viral vector to generate a resistance test vector designated RTV-675. RTV-675 was then tested in a phenotypic assay to determine accurately and quantitatively the level of susceptibility to a panel of anti-retroviral drugs. […] The pattern of susceptibility to all of the drugs tested was examined and compared to known patterns of susceptibility.

[2] = tested on: RTV-1057 (patient sample 98-1057); test: Phenotypic susceptibility assay, RTV-1057; details: RTV-1057, patient-derived pool
Method: as §1, §2
A resistance test vector was constructed as described in Example 1 from a patient sample designated 98-1057. This patient had been previously treated with ddI, d4T, AZT, and 3TC (NRTIs), saquinavir and indinavir (PRIs) and delavirdine (an NNRTI). Isolation of viral RNA and RT/PCR was used to generate a patient derived segment that comprised viral sequences coding for all of PR and aa 1-313 RT. The PDS was inserted into an indicator gene viral vector to generate resistance test vector designated RTV-1057. RTV-1057 was then tested in a phenotypic assay to determine accurately and quantitatively the level of susceptibility to a panel of anti-retroviral drugs. […] An IC50 was determined for the resistance test vector pool for each drug tested. The pattern of susceptibility to all of the drugs tested was examined and compared to known patterns of susceptibility.

[3] = tested on: RTV-955 (patient sample 98-955); test: Phenotypic susceptibility assay, RTV-955; details: RTV-955, patient-derived pool
Method: as §1, §2
(§3) A resistance test vector was constructed as described in Example 1 from a patient sample designated 98-955. This patient had been previously treated with nelfinavir (a PRI) Isolation of viral RNA and RT/PCR was used to generate a patient derived segment that comprised viral sequences coding for all of PR and aa 1-313 of RT. The PDS was inserted into an indicator gene viral vector to generate a resistance test vectors designated RTV-955. RTV-955 was then tested in a phenotypic assay to determine accurately and quantitatively the level of susceptibility to a panel of anti-retroviral drugs. […] An IC50 was determined for the resistance test vector pool for each drug tested. The pattern of susceptibility to all of the drugs tested was examined and compared to known patterns of susceptibility.

[4] = tested on: RTV-757 (patient sample 98-757); test: Phenotypic susceptibility assay, RTV-757; details: RTV-757, same patient after additional 8 weeks of treatment
Method: as §1, §2
as §3, with “sample designated 98-1033. […] Isolation of” for “sample designated 98-955. This patient had been previously treated with nelfinavir (a PRI) Isolation of”, “to generate resistance test” for “to generate a resistance test”, “vectors designated RTV-1033 and RTV-757. RTV-1033 and RTV-757 were then tested” for “vectors designated RTV-955. RTV-955 was then tested”

[5] = tested on: RTV-1058 Clone 4 (K103N and Y188L); test: Phenotypic susceptibility assay, RTV-1058 clone 4
Method: The resistance test vectors containing a functional luciferase gene cassette were constructed and host cells were transfected with the resistance test vector DNA. The resistant test vectors contained patient-derived reverse transcriptase and protease sequences that were either susceptible or resistant to the antiretroviral agents, such as nucleoside reverse transcriptase inhibitors, non-nucleoside reverse transcriptase inhibitors and protease inhibitors. […] The IC50 values were determined by plotting percent drug inhibition vs. log10 drug concentration.
Host cells were seeded in 10-cm-diameter dishes and were transfected several days after plating with resistance test vector plasmid DNA and the envelope expression vector. […] HIV capsid protein (p24) levels in the harvested cell culture media were determined by an EIA method as described by the manufacturer (SIAC; Frederick, Md.). […] The inhibitory effect of the drug was determined using the following equation: […]
A resistance test vector was constructed as described in Example 1 from a patient sample designated 98-1058. […] An IC50 was determined for the resistance test vector pool for each drug tested.

[6] = tested on: RTVs containing P225H plus K103N, Y181C or both (K103N+Y181C); test: Phenotypic susceptibility assay, P225H added to K103N, Y181C or both; details: P225H with K103N
Method: as §1, §2
Resistance test vectors were constructed containing the P225H mutation alone and in combination with other known drug resistance mutations (K103N, Y181C) known to modulate the HIV susceptibility to NNRTIs. […] (Sakar G and Sommar SS (1994) Biotechniques 8(4), 404-407). […] The pattern of phenotypic susceptibility to the NNRTI, delavirdine in the P225H-RTV was altered as compared to wild type.

| Structure (SMILES) | fold decrease in susceptibility (IC50) [1] | fold decrease in susceptibility (IC50) [2] | fold decrease in susceptibility (IC50) [3] | fold decrease in susceptibility (IC50) [4] | fold loss of susceptibility (IC50) [5] | change in susceptibility compared to the corresponding RTV lacking P225H [6] |
| --- | --- | --- | --- | --- | --- | --- |
| CC(C)Nc1cccnc1N1CCN(C(=O)c2cc3cc(NS(C)(=O)=O)ccc3[nH]2)CC1 [delavirdine] | 2.1 fold | 35 fold | 4 fold | 10 fold | 85 fold | more susceptible to inhibition by delavirdine if the P225H mutation was present |
| Cc1ccnc2c1NC(=O)c1cccnc1N2C1CC1 [nevirapine] | 6 fold | 610 fold | 530 fold | greater than 800 fold | greater than 800 fold | did not significantly change nevirapine susceptibility |
